According to ChEMBL document CHEMBL1201862, “PubChem BioAssay data set” (2004):
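48-hour exposure; five concentrations; linearly interpolated endpoints. GI50 = concentration required for 50% inhibition of growth.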 Calls of active or inactive are those of the source. Cut-off read from the data, not from the text of the source: active = GI50 up to about 1.1 µM and inactive = higher.

Legend:
Test in all cases: NCI anticancer screen, dose series, 48 h
A498 = test system: A498
A549 = test system: A549
DU-145 = test system: DU-145
HL-60 = test system: HL-60
HOP-62 = test system: HOP-62
HOP-92 = test system: HOP-92
IGROV-1 = test system: IGROV-1
KM12 = test system: KM12
MDA-MB-231 = test system: MDA-MB-231
NCI-H226 = test system: NCI-H226
NCI-H23 = test system: NCI-H23
NCI-H522 = test system: NCI-H522
OVCAR-3 = test system: OVCAR-3
OVCAR-5 = test system: OVCAR-5
RPMI-8226 = test system: RPMI-8226
SF-268 = test system: SF-268
SK-MEL-5 = test system: SK-MEL-5
SNB-75 = test system: SNB-75
SW-620 = test system: SW-620
UACC-62 = test system: UACC-62

SMILES	GI50 (A498)	GI50 (A549)	GI50 (DU-145)	GI50 (HL-60)	GI50 (HOP-62)	GI50 (HOP-92)	GI50 (IGROV-1)	GI50 (KM12)	GI50 (MDA-MB-231)	GI50 (NCI-H226)	GI50 (NCI-H23)	GI50 (NCI-H522)	GI50 (OVCAR-3)	GI50 (OVCAR-5)	GI50 (RPMI-8226)	GI50 (SF-268)	GI50 (SK-MEL-5)	GI50 (SNB-75)	GI50 (SW-620)	GI50 (UACC-62)
O=c1cc(-c2ccc(O)c(O)c2)oc2cc(O[C@H]3O[C@H](CO)[C@@H](O)[C@H](O)[C@H]3O)cc(O)c12	78.2 µM (inactive)	79.8 µM (inactive)	> 100 µM (inactive)	37.7 µM (inactive)	> 100 µM (inactive)	> 100 µM (inactive)	> 100 µM (inactive)	38 µM (inactive)	> 100 µM (inactive)	> 100 µM (inactive)	> 100 µM (inactive)	41.3 µM (inactive)	81.7 µM (inactive)	> 100 µM (inactive)	73.5 µM (inactive)	62.1 µM (inactive)	70.1 µM (inactive)	20.2 µM (inactive)	> 100 µM (inactive)	93.1 µM (inactive)
O=[N+]([O-])/C(Cl)=C(/C(Cl)=C(Cl)Cl)N1CCOCC1	3.04 µM (inactive)	5.73 µM (inactive)	13.7 µM (inactive)	2.28 µM (inactive)		2.51 µM (inactive)	1.92 µM (inactive)	3.34 µM (inactive)	3.86 µM (inactive)	16.4 µM (inactive)	2.24 µM (inactive)	2 µM (inactive)	2.13 µM (inactive)	7.93 µM (inactive)	2.56 µM (inactive)	6.41 µM (inactive)	1.65 µM (inactive)	4.03 µM (inactive)	2.69 µM (inactive)	1.92 µM (inactive)
CC(=O)Nc1ccc2nc(-c3ccccn3)c(-c3ccccn3)nc2c1	> 100 µM (inactive)	> 100 µM (inactive)	> 100 µM (inactive)	> 100 µM (inactive)		> 100 µM (inactive)	> 100 µM (inactive)	> 100 µM (inactive)	> 100 µM (inactive)	> 100 µM (inactive)		> 100 µM (inactive)	> 100 µM (inactive)	> 100 µM (inactive)	> 100 µM (inactive)	> 100 µM (inactive)	> 100 µM (inactive)	> 100 µM (inactive)	> 100 µM (inactive)	> 100 µM (inactive)
CC1=NN(c2ccccc2Cl)C2(C1)C(Cl)C(=O)N2c1nc2ccccc2s1 (centres undefined)	> 100 µM (inactive)	55.7 µM (inactive)	47.2 µM (inactive)	25.5 µM (inactive)	29.2 µM (inactive)	88.7 µM (inactive)	42.1 µM (inactive)	55.6 µM (inactive)	46.6 µM (inactive)	50.5 µM (inactive)	48.4 µM (inactive)	17.9 µM (inactive)	17.3 µM (inactive)	> 100 µM (inactive)	21.7 µM (inactive)	64.9 µM (inactive)	32.3 µM (inactive)	20.8 µM (inactive)	63.4 µM (inactive)	44.6 µM (inactive)
COC(=O)c1cc(C)ccc1CC(Cc1ccc(C)cc1)C(=O)OC (centres undefined)	72.6 µM (inactive)	12.9 µM (inactive)	> 33 µM (inactive)	4.37 µM (inactive)	> 100 µM (inactive)	8.95 µM (inactive)	72.4 µM (inactive)	10.8 µM (inactive)	31.9 µM (inactive)	> 47.4 µM (inactive)	9.4 µM (inactive)	7.06 µM (inactive)	> 100 µM (inactive)	9.86 µM (inactive)	5.77 µM (inactive)	7.52 µM (inactive)	3.48 µM (inactive)	6.78 µM (inactive)	23.5 µM (inactive)	> 100 µM (inactive)
CSc1ncc2c(n1)-c1ccccc1OC2N1CCCC1 (centres undefined)	11.8 µM (inactive)	> 100 µM (inactive)	> 100 µM (inactive)	52.7 µM (inactive)		> 100 µM (inactive)	47.8 µM (inactive)	> 100 µM (inactive)	> 100 µM (inactive)	31 µM (inactive)	> 100 µM (inactive)	36.6 µM (inactive)	47.4 µM (inactive)	> 100 µM (inactive)	50.9 µM (inactive)	> 100 µM (inactive)	> 100 µM (inactive)	41.7 µM (inactive)	94.8 µM (inactive)	26.4 µM (inactive)
NC1=C(N2CCOCC2)C(=O)NC2=N/C(=C\c3ccccc3O)C(=O)N21	> 100 µM (inactive)	> 100 µM (inactive)	> 100 µM (inactive)	41.6 µM (inactive)		51.8 µM (inactive)	> 100 µM (inactive)	> 100 µM (inactive)	> 100 µM (inactive)	59.6 µM (inactive)	> 100 µM (inactive)	76.2 µM (inactive)		> 100 µM (inactive)	20.5 µM (inactive)	> 100 µM (inactive)	73.6 µM (inactive)	> 100 µM (inactive)	> 100 µM (inactive)	
COC(=O)/C(C#N)=C(\Nc1ccccc1)N1CCCCC1	> 100 µM (inactive)	> 100 µM (inactive)	> 100 µM (inactive)	> 100 µM (inactive)	> 100 µM (inactive)	> 100 µM (inactive)	> 100 µM (inactive)		> 100 µM (inactive)	> 100 µM (inactive)	> 100 µM (inactive)	> 100 µM (inactive)	> 100 µM (inactive)	> 100 µM (inactive)	> 100 µM (inactive)	> 100 µM (inactive)	> 100 µM (inactive)	> 100 µM (inactive)	> 100 µM (inactive)	
Brc1c(C#CCC(c2ccccc2)(c2ccccc2)c2ccccc2)ccc(C#CCC(c2ccccc2)(c2ccccc2)c2ccccc2)c1Br	> 100 µM (inactive)	> 100 µM (inactive)	> 100 µM (inactive)	> 100 µM (inactive)		> 100 µM (inactive)	> 100 µM (inactive)	> 100 µM (inactive)	> 100 µM (inactive)	> 100 µM (inactive)	> 100 µM (inactive)	> 100 µM (inactive)	> 100 µM (inactive)	> 100 µM (inactive)	> 100 µM (inactive)	> 100 µM (inactive)	> 100 µM (inactive)	> 100 µM (inactive)	> 100 µM (inactive)	> 100 µM (inactive)
CC1=C2NCN(C)N=C2C(C#N)(C#N)C1(C#N)C#N	41.3 µM (inactive)	> 78.5 µM (inactive)	42.3 µM (inactive)	1.93 µM (inactive)	> 55.2 µM (inactive)	15.4 µM (inactive)	24.8 µM (inactive)	> 65.9 µM (inactive)	19.6 µM (inactive)	> 50.7 µM (inactive)	14.1 µM (inactive)	8.87 µM (inactive)	20.4 µM (inactive)	33.5 µM (inactive)	10.9 µM (inactive)	32.2 µM (inactive)	27.4 µM (inactive)	> 51.1 µM (inactive)	10.2 µM (inactive)	20.8 µM (inactive)
CC(C)CCOC(=O)NC(Nc1ccc(F)cc1)(C(F)(F)F)C(F)(F)F	42.9 µM (inactive)	23.1 µM (inactive)	7.36 µM (inactive)	12.9 µM (inactive)	37.2 µM (inactive)	44.2 µM (inactive)	38.2 µM (inactive)	5.98 µM (inactive)	7.91 µM (inactive)	> 100 µM (inactive)	33.4 µM (inactive)	25.8 µM (inactive)	37.4 µM (inactive)	97.3 µM (inactive)	22.1 µM (inactive)	34.1 µM (inactive)	12.6 µM (inactive)	> 100 µM (inactive)	19 µM (inactive)	0.279 µM (active)
CC1=C(C(=O)NC(C)(C)C)CC(C(=O)NC(C)(C)C)C(C)N1 (centres undefined)	73.1 µM (inactive)	> 100 µM (inactive)	> 100 µM (inactive)	> 100 µM (inactive)	> 100 µM (inactive)	71.1 µM (inactive)	> 100 µM (inactive)	> 100 µM (inactive)	> 100 µM (inactive)	> 100 µM (inactive)	> 100 µM (inactive)	> 100 µM (inactive)	> 100 µM (inactive)	> 100 µM (inactive)	> 100 µM (inactive)	> 100 µM (inactive)	> 100 µM (inactive)	40.4 µM (inactive)	> 100 µM (inactive)	> 100 µM (inactive)
O=[N+]([O-])c1ccc2c(c1)Sc1ccccc1N2CCCCCl	> 100 µM (inactive)	> 100 µM (inactive)	> 100 µM (inactive)	> 100 µM (inactive)	> 100 µM (inactive)	24.9 µM (inactive)	> 100 µM (inactive)	> 100 µM (inactive)	> 100 µM (inactive)	> 100 µM (inactive)	> 100 µM (inactive)	> 100 µM (inactive)	> 100 µM (inactive)	> 100 µM (inactive)	> 100 µM (inactive)	> 100 µM (inactive)	> 100 µM (inactive)	> 100 µM (inactive)	> 100 µM (inactive)	
COc1ccc(OC)c2c1C1CCC(=O)N1CN2C(C)=O (centres undefined)	> 100 µM (inactive)	> 100 µM (inactive)	> 100 µM (inactive)	> 100 µM (inactive)	> 100 µM (inactive)	> 100 µM (inactive)	> 100 µM (inactive)	> 100 µM (inactive)	> 100 µM (inactive)	> 100 µM (inactive)	> 100 µM (inactive)	> 100 µM (inactive)	> 100 µM (inactive)	> 100 µM (inactive)	> 100 µM (inactive)	75.5 µM (inactive)	> 100 µM (inactive)	> 100 µM (inactive)	> 100 µM (inactive)	> 100 µM (inactive)
